The text below walks through data of ChEMBL document CHEMBL1153558, “In vitro antifungal susceptibilities of five species of sporothrix” (2008).

≈ marks a conversion by molar mass, not a printed value. Numbered stars: 1 amine (or outer) side, 2 acyl side, 3 side chain; on linkers, the order of the positions; unused ones are H or OH. Bridge positions count the residues as written; N and C are the ends. Square brackets hold non-standard residues; d marks the D form. Peptide text beside a SMILES is read from it. * marks the point of attachment. hTyr(3S-OH,4S-OH,3'-OSO3H) = N[C@H](C(=O)O)[C@H](O)[C@@H](O)c1ccc(O)c(OS(=O)(=O)O)c1; Orn(4R-OH,5R-OH) = O=C([C@H](C[C@@H](O)[C@@H](O)N[*:3])N[*:1])[*:2]; Pro(3S-OH,4S-Me) = C[C@H]1CN[C@H](C(=O)O)[C@H]1O; X1 = CCCCCOc1ccc(-c2cc(-c3ccc(C(=O)*)cc3)no2)cc1; Gln(3R-OH) = NC(=O)C[C@@H](O)[C@H](N)C(=O)O; Hyp = O=C(O)[C@@H]1C[C@@H](O)CN1

What all share (format): functional
In one assay the test system is Sporothrix schenckii. Nature of the assay: Antifungal activity against Sporothrix schenckii after 72 hrs by microdilution method. A general note: In broth dilution the organism is exposed to a series of concentrations in liquid medium.
A further assay has as its system Sporothrix globosa. Nature of the assay: Antifungal activity against Sporothrix globosa after 72 hrs by microdilution method.
The test system of assay [1] is Sporothrix. Nature of the assay: Antifungal activity against Sporothrix brasiliensis after 72 hrs by microdilution method.
A further assay concerns Sporothrix albicans. The experiment in a line: Antifungal activity against Sporothrix albicans after 72 hrs by microdilution method.
Assay [2] relates to Sporothrix. The experiment in a line: Antifungal activity against Sporothrix mexicana after 72 hrs by microdilution method.

For orientation: MIC50 means the lowest concentration that inhibits either 50% of growth or 50% of the strains tested, depending on the study. Broadly, the MIC90 is the lowest concentration that inhibits either 90% of growth or 90% of the strains tested, depending on the study. Read a low MIC90 as greater potency. As usually defined, the MIC is the lowest concentration found to suppress growth. A higher MIC goes with a less susceptible organism. Regarding `C[C@@H](n1cnc2cc(Cl)ccc2c1=O)[C@](O)(Cn1cncn1)c1ccc(F)cc1F` [ALBACONAZOLE], the MIC50 against Sporothrix schenckii is 16 µg/mL (≈ 37.1 µM); in the assay with Sporothrix globosa, 16 µg/mL (≈ 37.1 µM); in the assay with Sporothrix [1], 1 µg/mL (≈ 2.32 µM); against Sporothrix albicans, 16 µg/mL (≈ 37.1 µM). For the same molecule, the MIC90 in the assay with Sporothrix schenckii came to 32 µg/mL (≈ 74.1 µM); in the assay with Sporothrix globosa it was 16 µg/mL (≈ 37.1 µM); with Sporothrix [1], 4 µg/mL (≈ 9.26 µM); against Sporothrix albicans, 32 µg/mL (≈ 74.1 µM). Moreover, the MIC against Sporothrix [2] worked out at 32 µg/mL (≈ 74.1 µM).

Take `C[C@@H]1[C@H](O)[C@@H](C)/C=C/C=C/C=C/C=C/C=C/C=C/C=C/[C@H](O[C@@H]2O[C@H](C)[C@@H](O)[C@H](N)[C@@H]2O)C[C@@H]2O[C@](O)(C[C@@H](O)C[C@@H](O)[C@H](O)CC[C@@H](O)C[C@@H](O)CC(=O)O[C@H]1C)C[C@H](O)[C@H]2C(=O)O` [AMPHOTERICIN B]: the MIC50 in the assay with Sporothrix schenckii came to 4 µg/mL (≈ 4.33 µM); in the assay with Sporothrix globosa it was 4 µg/mL (≈ 4.33 µM); in the assay on Sporothrix [1], 2 µg/mL (≈ 2.16 µM); against Sporothrix albicans, 4 µg/mL (≈ 4.33 µM). The MIC90 was 4 µg/mL (≈ 4.33 µM) in the assay on Sporothrix schenckii, 8 µg/mL (≈ 8.66 µM) with Sporothrix globosa, 4 µg/mL (≈ 4.33 µM) with Sporothrix [1] and 8 µg/mL (≈ 8.66 µM) against Sporothrix albicans. The same molecule showed an MIC with Sporothrix [2] of 16 µg/mL (≈ 17.3 µM).

With `Clc1cc(Cl)c2c(c1)CCc1ccccc1C2n1ccnc1` (stereo not given) [EBERCONAZOLE], the MIC50 against Sporothrix schenckii worked out at 2 µg/mL (≈ 6.07 µM); against Sporothrix globosa, 2 µg/mL (≈ 6.07 µM); against Sporothrix [1], 0.25 µg/mL (≈ 0.759 µM); with Sporothrix albicans, 8 µg/mL (≈ 24.3 µM). The MIC90 in the assay with Sporothrix schenckii was 8 µg/mL (≈ 24.3 µM); against Sporothrix globosa, 4 µg/mL (≈ 12.1 µM); with Sporothrix [1], 1 µg/mL (≈ 3.04 µM); in the assay with Sporothrix albicans, 16 µg/mL (≈ 48.6 µM). This molecule also displayed an MIC against Sporothrix [2] of 32 µg/mL (≈ 97.2 µM).

As for `OC(Cn1cncn1)(Cn1cncn1)c1ccc(F)cc1F` [FLUCONAZOLE], the MIC against Sporothrix schenckii, in the assay on Sporothrix globosa, in the assay with Sporothrix [1], against Sporothrix albicans and against Sporothrix [2] was 128 µg/mL (≈ 418 µM) throughout. Further, the MIC50 with Sporothrix schenckii, against Sporothrix globosa, in the assay on Sporothrix [1] and with Sporothrix albicans was 128 µg/mL (≈ 418 µM) in each case. The MIC90 with Sporothrix schenckii, against Sporothrix globosa, with Sporothrix [1] and against Sporothrix albicans was 128 µg/mL (≈ 418 µM) in each case.

For the molecule `Nc1nc(=O)[nH]cc1F` [FLUCYTOSINE], the MIC50 worked out at 16 µg/mL (≈ 124 µM) against Sporothrix schenckii, 64 µg/mL (≈ 496 µM) with Sporothrix globosa, 16 µg/mL (≈ 124 µM) with Sporothrix [1] and 128 µg/mL (≈ 992 µM) in the assay on Sporothrix albicans. In addition, the MIC90 in the assay on Sporothrix schenckii, with Sporothrix globosa, in the assay with Sporothrix [1] and against Sporothrix albicans was 128 µg/mL (≈ 992 µM) in each case. The MIC in the assay on Sporothrix albicans and against Sporothrix [2] was 128 µg/mL (≈ 992 µM) each time.

With `CCC(C)n1ncn(-c2ccc(N3CCN(c4ccc(OCC5COC(Cn6cncn6)(c6ccc(Cl)cc6Cl)O5)cc4)CC3)cc2)c1=O` (stereo not given) [ITRACONAZOLE], the MIC50 was 4 µg/mL (≈ 5.67 µM) in the assay with Sporothrix schenckii, 32 µg/mL (≈ 45.3 µM) against Sporothrix globosa, 0.5 µg/mL (≈ 0.709 µM) in the assay on Sporothrix [1] and 32 µg/mL (≈ 45.3 µM) in the assay with Sporothrix albicans. Besides, the MIC90 in the assay on Sporothrix schenckii amounted to 32 µg/mL (≈ 45.3 µM); with Sporothrix globosa, 32 µg/mL (≈ 45.3 µM); with Sporothrix [1], 1 µg/mL (≈ 1.42 µM); in the assay with Sporothrix albicans, 32 µg/mL (≈ 45.3 µM). In addition, the results for the MIC against Sporothrix [1], in the assay with Sporothrix albicans and against Sporothrix [2] were 0.5 µg/mL (≈ 0.709 µM), 32 µg/mL (≈ 45.3 µM) and 32 µg/mL (≈ 45.3 µM), respectively.

In the case of `CC(=O)N1CCN(c2ccc(OCC3COC(Cn4ccnc4)(c4ccc(Cl)cc4Cl)O3)cc2)CC1` (stereo not given) [KETOCONAZOLE], the MIC50 in the assay on Sporothrix schenckii was found to be 1 µg/mL (≈ 1.88 µM); against Sporothrix globosa it was 1 µg/mL (≈ 1.88 µM); against Sporothrix [1], 0.125 µg/mL (≈ 0.235 µM); with Sporothrix albicans it was 4 µg/mL (≈ 7.53 µM). The MIC90 in the assay with Sporothrix schenckii was 2 µg/mL (≈ 3.76 µM); against Sporothrix globosa, 2 µg/mL (≈ 3.76 µM); against Sporothrix [1], 0.25 µg/mL (≈ 0.47 µM); in the assay with Sporothrix albicans it was 4 µg/mL (≈ 7.53 µM). Further, in the assay on Sporothrix [2], the MIC was 4 µg/mL (≈ 7.53 µM).

In the case of `CCCCCOc1ccc(-c2cc(-c3ccc(C(=O)N[C@H]4C[C@@H](O)[C@@H](O)NC(=O)[C@@H]5[C@@H](O)[C@@H](C)CN5C(=O)[C@H]([C@H](O)CC(N)=O)NC(=O)[C@H]([C@H](O)[C@@H](O)c5ccc(O)c(OS(=O)(=O)O)c5)NC(=O)[C@@H]5C[C@@H](O)CN5C(=O)[C@H]([C@@H](C)O)NC4=O)cc3)no2)cc1` [MICAFUNGIN] (X1-[Orn(4R-OH,5R-OH)]T[Hyp][hTyr(3S-OH,4S-OH,3'-OSO3H)][Gln(3R-OH)][Pro(3S-OH,4S-Me)]; lactam 1-C), the MIC against Sporothrix schenckii, against Sporothrix globosa, with Sporothrix [1], against Sporothrix albicans and against Sporothrix [2] was 256 µg/mL (≈ 202 µM) in each case. Besides, the MIC50 against Sporothrix schenckii, with Sporothrix globosa, in the assay on Sporothrix [1] and with Sporothrix albicans was 256 µg/mL (≈ 202 µM) each time. The MIC90 against Sporothrix schenckii, in the assay with Sporothrix globosa, in the assay on Sporothrix [1] and with Sporothrix albicans was 256 µg/mL (≈ 202 µM) each time.

Turning to `CC[C@@H]([C@H](C)O)n1ncn(-c2ccc(N3CCN(c4ccc(OC[C@@H]5CO[C@@](Cn6cncn6)(c6ccc(F)cc6F)C5)cc4)CC3)cc2)c1=O` [POSACONAZOLE], the MIC50 against Sporothrix schenckii came to 1 µg/mL (≈ 1.43 µM); against Sporothrix globosa, 2 µg/mL (≈ 2.85 µM); with Sporothrix [1], 0.5 µg/mL (≈ 0.713 µM); against Sporothrix albicans, 2 µg/mL (≈ 2.85 µM). Also, the MIC90 against Sporothrix schenckii worked out at 8 µg/mL (≈ 11.4 µM); against Sporothrix globosa it was 8 µg/mL (≈ 11.4 µM); in the assay on Sporothrix [1], 1 µg/mL (≈ 1.43 µM); against Sporothrix albicans, 2 µg/mL (≈ 2.85 µM). The same molecule yielded an MIC in the assay on Sporothrix [2] of 32 µg/mL (≈ 45.7 µM).

Take `C[C@@H](c1nc(-c2ccc(C#N)cc2)cs1)[C@](O)(Cn1cncn1)c1ccc(F)cc1F` [RAVUCONAZOLE]: the MIC50 amounted to 8 µg/mL (≈ 18.3 µM) in the assay with Sporothrix schenckii, 8 µg/mL (≈ 18.3 µM) in the assay with Sporothrix globosa, 0.5 µg/mL (≈ 1.14 µM) against Sporothrix [1] and 16 µg/mL (≈ 36.6 µM) against Sporothrix albicans. In addition, the MIC90 against Sporothrix schenckii was 16 µg/mL (≈ 36.6 µM); against Sporothrix globosa, 16 µg/mL (≈ 36.6 µM); in the assay on Sporothrix [1] it was 1 µg/mL (≈ 2.29 µM); against Sporothrix albicans, 32 µg/mL (≈ 73.1 µM). Also, in the assay on Sporothrix [2], the MIC is 32 µg/mL (≈ 73.1 µM).

Regarding `CN(C/C=C/C#CC(C)(C)C)Cc1cccc2ccccc12` [TERBINAFINE], the MIC50 is 0.25 µg/mL (≈ 0.858 µM) against Sporothrix schenckii, 0.25 µg/mL (≈ 0.858 µM) in the assay on Sporothrix globosa, 0.06 µg/mL (≈ 0.206 µM) in the assay on Sporothrix [1] and 0.5 µg/mL (≈ 1.72 µM) in the assay with Sporothrix albicans. Moreover, the MIC90 turned out to be 0.5 µg/mL (≈ 1.72 µM) against Sporothrix schenckii, 0.5 µg/mL (≈ 1.72 µM) against Sporothrix globosa, 0.25 µg/mL (≈ 0.858 µM) in the assay with Sporothrix [1] and 4 µg/mL (≈ 13.7 µM) in the assay on Sporothrix albicans. Also, the figures for the MIC against Sporothrix [1] and against Sporothrix [2] were 0.06 µg/mL (≈ 0.206 µM) and 0.5 µg/mL (≈ 1.72 µM), respectively.

Take `C[C@@H](c1ncncc1F)[C@](O)(Cn1cncn1)c1ccc(F)cc1F` [VORICONAZOLE]: the MIC50 with Sporothrix schenckii is 32 µg/mL (≈ 91.6 µM); against Sporothrix globosa, 32 µg/mL (≈ 91.6 µM); against Sporothrix [1] it was 4 µg/mL (≈ 11.5 µM); against Sporothrix albicans, 8 µg/mL (≈ 22.9 µM). Besides, the MIC90 with Sporothrix schenckii was found to be 32 µg/mL (≈ 91.6 µM); against Sporothrix globosa, 32 µg/mL (≈ 91.6 µM); against Sporothrix [1], 8 µg/mL (≈ 22.9 µM); with Sporothrix albicans, 32 µg/mL (≈ 91.6 µM). Besides, in the assay on Sporothrix [2], the lowest concentration to inhibit growth (MIC) was 16 µg/mL (≈ 45.8 µM).
